Key:
Assay type in all cases: in vivo
[1] = system: giant foxtail (Setaria faberii); assay: Test B pre-/postemergence plant response
Summary of the method: (§1)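 Steps: plant seeds in loam soil–sand mix; spray soil preemergence, and in parallel spray 2–10 cm one- to two-leaf plants postemergence; hold ~10 days in greenhouse; visually rate injury against untreated controls (0 = no effect, 100 = complete control).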

[2] = system: wheat (Triticum aestivum); assay: Test B pre-/postemergence plant response
Summary of the method: as §1

[3] = system: corn (Zea mays); assay: Test B pre-/postemergence plant response
Summary of the method: as §1

[4] = system: velvetleaf (Abutilon theophrasti); assay: Test B pre-/postemergence plant response
Summary of the method: as §1

[5] = system: pigweed (Amaranthus retroflexus); assay: Test B pre-/postemergence plant response
Summary of the method: as §1

[6] = system: large (Lg) crabgrass (Digitaria sanguinalis); assay: Test B pre-/postemergence plant response
Summary of the method: as §1

[7] = system: barnyardgrass (Echinochloa crus-galli); assay: Test B pre-/postemergence plant response
Summary of the method: as §1

[8] = system: ducksalad (Heteranthera limosa); assay: Test C flooded paddy test plant response; details: Flood, 250 g ai/ha; scale of 0 to 100 where 0 is no effect and 100 is complete control; 13 to 15 days
Summary of the method: (§2)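 Plants grown to 2-leaf stage, flooded 3 cm above soil; compounds applied directly into paddy water, depth kept throughout. Visual rating versus controls after 13 to 15 days in greenhouse, 0 (no effect) to 100 (complete control).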

[9] = system: rice (Oryza sativa); assay: Test C flooded paddy test plant response; details: Flood, 250 g ai/ha; scale of 0 to 100 where 0 is no effect and 100 is complete control; 13 to 15 days
Summary of the method: as §2

[10] = system: small-flower umbrella sedge (Cyperus difformis); assay: Test C flooded paddy test plant response; details: Flood, 250 g ai/ha; scale of 0 to 100 where 0 is no effect and 100 is complete control; 13 to 15 days
Summary of the method: as §2

[11] = system: barnyardgrass (Echinochloa crus-galli); assay: Test C flooded paddy test plant response; details: Flood, 250 g ai/ha; scale of 0 to 100 where 0 is no effect and 100 is complete control; 13 to 15 days
Summary of the method: as §2

[12] = system: ragweed (common ragweed, Ambrosia elatior); assay: Test B pre-/postemergence plant response
Summary of the method: as §1

[13] = system: kochia (Kochia scoparia); assay: Test B pre-/postemergence plant response
Summary of the method: as §1

[14] = system: Italian ryegrass (Lolium multiflorum); assay: Test B pre-/postemergence plant response
Summary of the method: as §1

[15] = system: blackgrass (Alopecurus myosuroides); assay: Test B postemergence plant response
Summary of the method: (§3)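 Visual injury rating, 0–100 (0 = no effect, 100 = complete control), vs untreated controls ~10 days after postemergence spray; greenhouse; potted loam soil/sand; plants 2–10 cm, 1–2 leaf stage.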

[16] = system: galium (catchweed bedstraw, Galium aparine); assay: Test B postemergence plant response
Summary of the method: as §3

[17] = 125 g ai/ha, postemergence, 0 to 100 scale, 0 no effect, 100 complete control
[18] = Postemergence, 500 g ai/ha, 0 to 100 scale (0 no effect, 100 complete control)
[19] = Preemergence, 125 g ai/ha, 0 to 100 scale where 0 is no effect and 100 is complete control
[20] = Preemergence, 500 g ai/ha, 0 to 100 scale (0 no effect, 100 complete control)
[21] = 31 g ai/ha, Preemergence, 0 to 100 scale where 0 is no effect and 100 is complete control
[22] = Postemergence, 31 g ai/ha, 0 to 100 scale (0 no effect, 100 complete control)
[23] = Preemergence, 125 g ai/ha, 0 to 100 scale (0 no effect, 100 complete control)
[24] = Preemergence, 500 g ai/ha, 0 to 100 scale where 0 is no effect and 100 is complete control

Q: What does the source list for `Clc1cnc(Oc2ccccc2-c2cccc(Cl)n2)nc1` [Compound 16]?
A: Plant response rating, Foxtail, Giant [1, 17]: 0; Plant response rating, Foxtail, Giant [1, 18]: 0; Plant response rating, Foxtail, Giant [1, 19]: 0; Plant response rating, Foxtail, Giant [1, 20]: 10; Plant response rating, Wheat [2, 17]: 0; Plant response rating, Wheat [2, 18]: 0; Plant response rating, Wheat [2, 19]: 0; Plant response rating, Wheat [2, 20]: 0; Plant response rating, Corn [3, 17]: 0; Plant response rating, Corn [3, 18]: 0; Plant response rating, Corn [3, 19]: 0; Plant response rating, Corn [3, 20]: 0; Plant response rating, Velvetleaf [4, 17]: 0; Plant response rating, Velvetleaf [4, 18]: 20; Plant response rating, Velvetleaf [4, 19]: 0; Plant response rating, Velvetleaf [4, 20]: 20; Plant response rating, Pigweed [5, 17]: 0; Plant response rating, Pigweed [5, 18]: 30; Plant response rating, Pigweed [5, 19]: 0; Plant response rating, Pigweed [5, 20]: 20; Plant response rating, Crabgrass, Large [6, 17]: 0; Plant response rating, Crabgrass, Large [6, 18]: 0; Plant response rating, Crabgrass, Large [6, 19]: 0; Plant response rating, Crabgrass, Large [6, 20]: 10; Plant response rating, Barnyardgrass [7, 17]: 0; Plant response rating, Barnyardgrass [7, 18]: 0; Plant response rating, Barnyardgrass [7, 19]: 0; Plant response rating, Barnyardgrass [7, 20]: 0; Ducksalad plant response rating [8]: 0; Rice plant response rating [9]: 0; Sedge, Umbrella plant response rating [10]: 0; Barnyardgrass plant response rating [11]: 0

Q: With `Clc1cccc(-c2ccccc2Oc2ncc(Br)cn2)n1` [Compound 17] as the compound, how does the “Plant response rating, Foxtail, Giant” value [1, 17] read?
A: 0

Q: What about the “Plant response rating, Foxtail, Giant” value [1, 18] of the same compound?
A: 0

Q: And the “Plant response rating, Foxtail, Giant” value [1, 19]?
A: 0

Q: What about the “Plant response rating, Foxtail, Giant” value [1, 20] of the same compound?
A: 0

Q: And the “Plant response rating, Wheat” value [2, 17]?
A: 0

Q: What about the “Plant response rating, Wheat” value [2, 18] of the same compound?
A: 0

Q: What about the “Plant response rating, Wheat” value [2, 19] of the same compound?
A: 0

Q: And the “Plant response rating, Wheat” value [2, 20]?
A: 0

Q: What about the “Plant response rating, Corn” value [3, 17] of the same compound?
A: 0

Q: What about the “Plant response rating, Corn” value [3, 18] of the same compound?
A: 0

Q: What about the “Plant response rating, Corn” value [3, 19] of the same compound?
A: 0

Q: And the “Plant response rating, Corn” value [3, 20]?
A: 0

Q: What about the “Plant response rating, Velvetleaf” value [4, 17] of the same compound?
A: 0

Q: And the “Plant response rating, Velvetleaf” value [4, 18]?
A: 20

Q: What about the “Plant response rating, Velvetleaf” value [4, 19] of the same compound?
A: 0

Q: What about the “Plant response rating, Velvetleaf” value [4, 20] of the same compound?
A: 10

Q: And the “Plant response rating, Pigweed” value [5, 17]?
A: 0

Q: And the “Plant response rating, Pigweed” value [5, 18]?
A: 10

Q: And the “Plant response rating, Pigweed” value [5, 19]?
A: 0

Q: What about the “Plant response rating, Pigweed” value [5, 20] of the same compound?
A: 0

Q: And the “Plant response rating, Crabgrass, Large” value [6, 17]?
A: 0

Q: And the “Plant response rating, Crabgrass, Large” value [6, 18]?
A: 0

Q: And the “Plant response rating, Crabgrass, Large” value [6, 19]?
A: 0

Q: And the “Plant response rating, Crabgrass, Large” value [6, 20]?
A: 10

Q: And the “Plant response rating, Barnyardgrass” value [7, 17]?
A: 0

Q: And the “Plant response rating, Barnyardgrass” value [7, 18]?
A: 0

Q: What about the “Plant response rating, Barnyardgrass” value [7, 19] of the same compound?
A: 0

Q: And the “Plant response rating, Barnyardgrass” value [7, 20]?
A: 0

Q: What about the “Ducksalad plant response rating” value [8] of the same compound?
A: 0

Q: And the “Rice plant response rating” value [9]?
A: 0

Q: What about the “Sedge, Umbrella plant response rating” value [10] of the same compound?
A: 0

Q: And the “Barnyardgrass plant response rating” value [11]?
A: 0

Q: What does the source list for `Clc1cnc(Oc2ccccc2-c2cocn2)nc1` [Compound 214]?
A: Plant response rating, Foxtail, Giant [1, 21]: 0; Plant response rating, Foxtail, Giant [1, 17]: 0; Plant response rating, Foxtail, Giant [1, 22]: 0; Foxtail, Giant plant response rating [1, 23]: 0; Plant response rating, Wheat [2, 17]: 0; Plant response rating, Wheat [2, 22]: 0; Plant response rating, Ragweed [12, 21]: 0; Plant response rating, Ragweed [12, 17]: 0; Plant response rating, Ragweed [12, 22]: 0; Ragweed plant response rating [12, 23]: 0; Plant response rating, Corn [3, 17]: 0; Plant response rating, Corn [3, 22]: 0; Plant response rating, Kochia [13, 21]: 0; Plant response rating, Kochia [13, 17]: 0; Plant response rating, Kochia [13, 22]: 0; Kochia plant response rating [13, 23]: 0; Plant response rating, Pigweed [5, 21]: 0; Plant response rating, Pigweed [5, 17]: 10; Plant response rating, Pigweed [5, 22]: 0; Pigweed plant response rating [5, 23]: 0; Plant response rating, Ryegrass, Italian [14, 21]: 0; Plant response rating, Ryegrass, Italian [14, 17]: 0; Plant response rating, Ryegrass, Italian [14, 22]: 0; Ryegrass, Italian plant response rating [14, 23]: 0; Plant response rating, Barnyardgrass [7, 21]: 0; Plant response rating, Barnyardgrass [7, 17]: 0; Plant response rating, Barnyardgrass [7, 22]: 0; Barnyardgrass plant response rating [7, 23]: 0; Plant response rating, Blackgrass [15, 17]: 0; Plant response rating, Blackgrass [15, 22]: 0; Plant response rating, Galium [16, 17]: 10; Plant response rating, Galium [16, 22]: 0; Ducksalad plant response rating [8]: 0; Rice plant response rating [9]: 0; Sedge, Umbrella plant response rating [10]: 0; Barnyardgrass plant response rating [11]: 0

Q: For `FC(F)(F)c1ccnc(-c2c(Cl)cccc2Oc2ncc(Cl)cn2)c1` [Compound 159], which “Plant response rating, Foxtail, Giant” value [1, 17] is on record?
A: 0

Q: What about the “Plant response rating, Foxtail, Giant” value [1, 18] of the same compound?
A: 70

Q: And the “Foxtail, Giant plant response rating” value [1, 23]?
A: 20

Q: What about the “Plant response rating, Foxtail, Giant” value [1, 24] of the same compound?
A: 90

Q: And the “Plant response rating, Wheat” value [2, 17]?
A: 20

Q: What about the “Plant response rating, Wheat” value [2, 18] of the same compound?
A: 20

Q: What about the “Plant response rating, Ragweed” value [12, 17] of the same compound?
A: 0

Q: What about the “Plant response rating, Ragweed” value [12, 18] of the same compound?
A: 0

Q: And the “Ragweed plant response rating” value [12, 23]?
A: 0

Q: And the “Plant response rating, Ragweed” value [12, 24]?
A: 0

Q: And the “Plant response rating, Corn” value [3, 17]?
A: 20

Q: And the “Plant response rating, Corn” value [3, 18]?
A: 30

Q: What about the “Plant response rating, Kochia” value [13, 17] of the same compound?
A: 20

Q: What about the “Plant response rating, Kochia” value [13, 18] of the same compound?
A: 80

Q: What about the “Kochia plant response rating” value [13, 23] of the same compound?
A: 0

Q: What about the “Plant response rating, Kochia” value [13, 24] of the same compound?
A: 30

Q: What about the “Plant response rating, Pigweed” value [5, 17] of the same compound?
A: 90

Q: And the “Plant response rating, Pigweed” value [5, 18]?
A: 100

Q: And the “Pigweed plant response rating” value [5, 23]?
A: 40

Q: And the “Plant response rating, Pigweed” value [5, 24]?
A: 100

Q: What about the “Plant response rating, Ryegrass, Italian” value [14, 17] of the same compound?
A: 0

Q: And the “Plant response rating, Ryegrass, Italian” value [14, 18]?
A: 0

Q: And the “Ryegrass, Italian plant response rating” value [14, 23]?
A: 0

Q: And the “Plant response rating, Ryegrass, Italian” value [14, 24]?
A: 0

Q: What about the “Plant response rating, Barnyardgrass” value [7, 17] of the same compound?
A: 0

Q: And the “Plant response rating, Barnyardgrass” value [7, 18]?
A: 20

Q: What about the “Barnyardgrass plant response rating” value [7, 23] of the same compound?
A: 0

Q: What about the “Plant response rating, Barnyardgrass” value [7, 24] of the same compound?
A: 60

Q: What about the “Plant response rating, Blackgrass” value [15, 17] of the same compound?
A: 0

Q: And the “Plant response rating, Blackgrass” value [15, 18]?
A: 30

Q: And the “Plant response rating, Galium” value [16, 17]?
A: 70

Q: And the “Plant response rating, Galium” value [16, 18]?
A: 100

Q: What about the “Ducksalad plant response rating” value [8] of the same compound?
A: 0

Q: What about the “Rice plant response rating” value [9] of the same compound?
A: 0

Q: And the “Sedge, Umbrella plant response rating” value [10]?
A: 0

Q: And the “Barnyardgrass plant response rating” value [11]?
A: 0
